Results taken from ChEMBL document CHEMBL3297657, “Synthesis and antitumor activities of novel α-aminophosphonate derivatives containing an alizarin moiety” (Eur J Med Chem, 2014).
The source made the active and inactive calls. The calls are words filed in the database; no cut-off is given here.

Columns and labels:
NCI-H460 [1] = experiment: Induction of apoptosis in human NCI-H460 cells assessed as early apoptotic cells after 24 hrs by Annexin V/propidium iodide staining-based flow cytometry; type: functional, cell-based
NCI-H460 [2] = experiment: Induction of apoptosis in human NCI-H460 cells assessed as viable cells at 8 uM after 48 hrs by Annexin V/propidium iodide staining-based flow cytometry (reference value: 72.2%); type: functional; settings: NCI-H460, 48 h, read-out: Activity
NCI-H460 [3] = experiment: Induction of apoptosis in human NCI-H460 cells assessed as early apoptotic cells at 8 uM after 48 hrs by Annexin V/propidium iodide staining-based flow cytometry (reference value: 6.8%); type: functional
NCI-H460 [4] = experiment: Cell cycle arrest in human NCI-H460 cells assessed as accumulation at S phase at 8 uM after 48 hrs by Rnase A/propidium iodide staining-based flow cytometry (reference value: 19.41%); type: functional
NCI-H460 [5] = experiment: Induction of apoptosis in human NCI-H460 cells assessed as change in mitochondrial membrane potential at 8 uM by JC-1 staining-based fluorescence microscopy relative to control; type: functional, cell-based; settings: TDE = time-dependent effect
NCI-H460 [6] = experiment: Cell cycle arrest in human NCI-H460 cells assessed as accumulation at S phase at 10 uM after 48 hrs by Rnase A/propidium iodide staining-based flow cytometry (reference value: 19.41%); type: functional
NCI-H460 [7] = experiment: Induction of apoptosis in human NCI-H460 cells assessed as caspase-3 activation after 24 hrs by qRT-PCR analysis; type: functional, cell-based
NCI-H460 [8] = experiment: Cell cycle arrest in human NCI-H460 cells assessed as accumulation at G1 phase at 10 uM after 48 hrs by Rnase A/propidium iodide staining-based flow cytometry (reference value: 46.69%); type: functional
NCI-H460 [9] = experiment: Induction of apoptosis in human NCI-H460 cells assessed as viable cells at 10 uM after 24 hrs by Annexin V/propidium iodide staining-based flow cytometry (reference value: 72.2%); type: functional; settings: NCI-H460, 24 h, read-out: Activity
NCI-H460 [10] = experiment: Induction of apoptosis in human NCI-H460 cells assessed as necrotic cells at 8 uM by Annexin V/propidium iodide staining-based flow cytometry; type: functional, cell-based; settings: TDE = time-dependent effect
NCI-H460 [11] = experiment: Induction of apoptosis in human NCI-H460 cells assessed as change in mitochondrial membrane potential at 8 uM after 12 to 48 hrs by JC-1 staining-based fluorescence microscopy relative to control; type: functional, cell-based
NCI-H460 [12] = experiment: Induction of apoptosis in human NCI-H460 cells assessed as late apoptotic cells at 8 uM after 24 hrs by Annexin V/propidium iodide staining-based flow cytometry (reference value: 14.1%); type: functional
NCI-H460 [13] = experiment: Induction of apoptosis in human NCI-H460 cells assessed as early apoptotic cells at 5 to 20 uM after 24 hrs by Annexin V/propidium iodide staining-based flow cytometry relative to control; type: functional, cell-based
NCI-H460 [14] = experiment: Induction of apoptosis in human NCI-H460 cells assessed as necrotic cells at 10 uM after 24 hrs by Annexin V/propidium iodide staining-based flow cytometry (reference value: 6.9%); type: functional
NCI-H460 [15] = experiment: Induction of apoptosis in human NCI-H460 cells assessed as early apoptotic cells at 8 uM after 12 hrs by Annexin V/propidium iodide staining-based flow cytometry (reference value: 6.8%); type: functional
NCI-H460 [16] = experiment: Induction of apoptosis in human NCI-H460 cells assessed as necrotic cells at 5 uM after 24 hrs by Annexin V/propidium iodide staining-based flow cytometry (reference value: 6.9%); type: functional
NCI-H460 [17] = experiment: Induction of apoptosis in human NCI-H460 cells assessed as change in mitochondrial membrane potential at 5 to 20 uM after 24 hrs by JC-1 staining-based fluorescence microscopy relative to control; type: functional, cell-based
NCI-H460 [18] = experiment: Induction of apoptosis in human NCI-H460 cells assessed as karyopyknosis and chromatin condensation at 8 uM after 12 to 48 hrs by Hoechst 33258 staining-based fluorescence microscopy relative to control; type: functional, cell-based
NCI-H460 [19] = experiment: Induction of apoptosis in human NCI-H460 cells assessed as necrotic cells at 8 uM after 48 hrs by Annexin V/propidium iodide staining-based flow cytometry (reference value: 6.9%); type: functional
HeLa = experiment: cells; settings: Homo sapiens, 48 h
Description: Cytotoxicity against human HeLa cells after 48 hrs by MTT assay

NCI-H460 [20] = experiment: Cell cycle arrest in human NCI-H460 cells assessed as accumulation at G1 phase at 8 uM after 48 hrs by Rnase A/propidium iodide staining-based flow cytometry (reference value: 46.69%); type: functional
NCI-H460 [21] = experiment: Induction of apoptosis in human NCI-H460 cells assessed as late apoptotic cells at 8 uM by Annexin V/propidium iodide staining-based flow cytometry; type: functional, cell-based; settings: TDE = time-dependent effect
NCI-H460 [22] = experiment: Cell cycle arrest in human NCI-H460 cells assessed as accumulation at G1 phase at 8 uM after 12 hrs by Rnase A/propidium iodide staining-based flow cytometry (reference value: 46.69%); type: functional
NCI-H460 [23] = experiment: Cell cycle arrest in human NCI-H460 cells assessed as accumulation at G2 phase at 8 uM after 12 hrs by Rnase A/propidium iodide staining-based flow cytometry (reference value: 33.9%); type: functional
HCT-116 = experiment: cells; settings: Homo sapiens, HCT-116, 48 h
Description: Cytotoxicity against human HCT116 cells after 48 hrs by MTT assay

NCI-H460 [24] = experiment: Induction of apoptosis in human NCI-H460 cells assessed as late apoptotic cells at 5 uM after 24 hrs by Annexin V/propidium iodide staining-based flow cytometry (reference value: 14.1%); type: functional
HUVEC = experiment: Cytotoxicity against HUVEC after 48 hrs by MTT assay; type: cell-based; settings: Homo sapiens
NCI-H460 [25] = experiment: Cell cycle arrest in human NCI-H460 cells assessed as accumulation at S phase at 8 uM after 24 hrs by Rnase A/propidium iodide staining-based flow cytometry (reference value: 19.41%); type: functional
NCI-H460 [26] = experiment: Induction of apoptosis in human NCI-H460 cells assessed as viable cells at 8 uM by Annexin V/propidium iodide staining-based flow cytometry; type: functional, cell-based; settings: TDE = time-dependent effect
NCI-H460 [27] = experiment: Induction of apoptosis in human NCI-H460 cells assessed as early apoptotic cells at 8 uM by Annexin V/propidium iodide staining-based flow cytometry; type: functional, cell-based; settings: TDE = time-dependent effect
NCI-H460 [28] = experiment: Induction of apoptosis in human NCI-H460 cells assessed as karyopyknosis and chromatin condensation after 24 hrs by Hoechst 33258 staining-based fluorescence microscopy relative to control; type: functional, cell-based
NCI-H460 [29] = experiment: Induction of apoptosis in human NCI-H460 cells assessed as early apoptotic cells at 5 uM after 24 hrs by Annexin V/propidium iodide staining-based flow cytometry (reference value: 6.8%); type: functional
NCI-H460 [30] = experiment: Induction of apoptosis in human NCI-H460 cells assessed as viable cells at 8 uM after 12 hrs by Annexin V/propidium iodide staining-based flow cytometry (reference value: 72.2%); type: functional; settings: NCI-H460, 12 h, read-out: Activity
KB = experiment: Cytotoxicity against human KB cells after 48 hrs by MTT assay; type: functional, cell-based
NCI-H460 [31] = experiment: Induction of apoptosis in human NCI-H460 cells assessed as upregulation of CAMK1 mRNA expression after 24 hrs by qRT-PCR analysis; type: functional, cell-based
NCI-H460 [32] = experiment: Induction of apoptosis in human NCI-H460 cells assessed as karyopyknosis and chromatin condensation at 8 uM by Hoechst 33258 staining-based fluorescence microscopy relative to control; type: functional, cell-based; settings: TDE = time-dependent effect
NCI-H460 [33] = experiment: Induction of apoptosis in human NCI-H460 cells assessed as karyopyknosis and chromatin condensation at 5 to 20 uM after 24 hrs by Hoechst 33258 staining-based fluorescence microscopy relative to control; type: functional, cell-based

IC50 (HeLa) [µM] | SMILES | Activity (NCI-H460 [1]) | viability at 8 µM (NCI-H460 [2]) [%] | Activity (NCI-H460 [3]) [%] | Activity (NCI-H460 [4]) [%] | Activity (NCI-H460 [5]) | Activity (NCI-H460 [6]) [%] | Activity (NCI-H460 [7]) | Activity (NCI-H460 [8]) [%] | viability at 10 µM (NCI-H460 [9]) [%] | Activity (NCI-H460 [10]) | Activity (NCI-H460 [11]) | Activity (NCI-H460 [12]) [%] | Activity (NCI-H460 [13]) | Activity (NCI-H460 [14]) [%] | Activity (NCI-H460 [15]) [%] | Activity (NCI-H460 [16]) [%] | Activity (NCI-H460 [17]) | Activity (NCI-H460 [18]) | Activity (NCI-H460 [19]) [%] | further results
15 | CCOP(=O)(OCC)C(NC(=O)C(C)Oc1ccc2c(c1O)C(=O)c1ccccc1C2=O)c1cccc2ccccc12 (stereo unspecified) | Dose-dependent effect | 26.6 | 54.9 | 0.41 | tde | 15.41 | Dose-dependent effect | 59.86 | 44.6 | tde | Active | 13.5 | Active | 1.1 | 19.9 | 1.4 | Active | Active | 3.7 | Activity (NCI-H460 [20]): 68.09%; Activity (NCI-H460 [21]): tde; Activity (NCI-H460 [22]): 65.57%; Activity (NCI-H460 [23]): 34.32%; IC50 (HCT-116): 40 µM; Activity (NCI-H460 [24]): 16.3%; IC50 (HUVEC): 40.5 µM; Activity (NCI-H460 [25]): 1.11%; Activity (NCI-H460 [26]): tde; Activity (NCI-H460 [27]): tde; Activity (NCI-H460 [28]): Dose-dependent effect; Activity (NCI-H460 [29]): 10.9%; viability at 8 µM (NCI-H460 [30]): 70.9%; IC50 (KB): 1020 nM; Activity (NCI-H460 [31]): Dose-dependent effect; Activity (NCI-H460 [32]): tde; Activity (NCI-H460 [33]): Active
28.2 | CCOP(=O)(OCC)C(NC(=O)C(C)Oc1ccc2c(c1O)C(=O)c1ccccc1C2=O)c1ccccc1OC (stereo unspecified) | Dose-dependent effect | 28.2 | 50.2 | 8.87 | tde | 9.84 | Dose-dependent effect | 60.79 | 41.4 | tde | Active | 11.1 | Active | 8.4 | 21.9 | 2.8 | Active | Active | 3.2 | Activity (NCI-H460 [20]): 68.16%; Activity (NCI-H460 [21]): tde; Activity (NCI-H460 [22]): 56.84%; Activity (NCI-H460 [23]): 27.54%; IC50 (HCT-116): 10.5 µM; Activity (NCI-H460 [24]): 8.6%; IC50 (HUVEC): > 50 µM; Activity (NCI-H460 [25]): 13.09%; Activity (NCI-H460 [26]): tde; Activity (NCI-H460 [27]): tde; Activity (NCI-H460 [28]): Dose-dependent effect; Activity (NCI-H460 [29]): 26.6%; viability at 8 µM (NCI-H460 [30]): 71.9%; IC50 (KB): 880 nM; Activity (NCI-H460 [31]): Dose-dependent effect; Activity (NCI-H460 [32]): tde; Activity (NCI-H460 [33]): Active
21.1 | CCOP(=O)(OCC)C(NC(=O)C(C)Oc1ccc2c(c1O)C(=O)c1ccccc1C2=O)c1ccccc1F (stereo unspecified) | Dose-dependent effect | 31.1 | 56.4 | 10.87 | tde | 13.42 | Dose-dependent effect | 65.81 | 36.2 | tde | Active | 13 | Active | 0.8 | 30.3 | 0.3 | Active | Active | 3.2 | Activity (NCI-H460 [20]): 65.52%; Activity (NCI-H460 [21]): tde; Activity (NCI-H460 [22]): 55.78%; Activity (NCI-H460 [23]): 29.57%; IC50 (HCT-116): 13.3 µM; Activity (NCI-H460 [24]): 9.2%; IC50 (HUVEC): 21 µM; Activity (NCI-H460 [25]): 16.3%; Activity (NCI-H460 [26]): tde; Activity (NCI-H460 [27]): tde; Activity (NCI-H460 [28]): Dose-dependent effect; Activity (NCI-H460 [29]): 28.9%; viability at 8 µM (NCI-H460 [30]): 61.3%; IC50 (KB): 700 nM; Activity (NCI-H460 [31]): Dose-dependent effect; Activity (NCI-H460 [32]): tde; Activity (NCI-H460 [33]): Active
